These results are taken from patent publication US20040105860A1, “Cell modulation using a cytoskeletal protein” (priority 2002, published 2004).

One experiment addresses RhoA kinase (ROCK-2) (Bos taurus, UniProt Q28021). Kind of experiment: Western blot for ROCK-2 in EC lysates. The following applies: co-treatment with Y27632 20 micromolar at the time of TNF exposure. The experiment is classed as cell-based, Bovine. On the technique in general: In western blotting, separated proteins are transferred to a membrane and probed.
The subject of the next experiment is cyclin A mRNA. The experiment in a line: Ribonuclease protection assay (RPA) of cyclin A mRNA expression in EC. The experiment is classed as cell-based, Bovine. Conditions: pre-treatment of EC with Y27632. On the procedure:
FIGS. 1A-D are explained in more detail as follows. Synchronized ECs were serum stimulated in the presence or absence of TNF for indicated times. Total cellular RNA was isolated and was analyzed by RPA for cyclin A, cyclin B and cyclin D1 expression. A representative autoradiograph is shown (FIG. 1A). mRNA expression of cyclins was corrected to that of GAPDH and quantified by densitometric analysis (FIGS. 1B-D). Data represent average of 3 similar experiments.
FIGS. 12A-C are explained in more detail as follows. (FIG. 12A) Representative PCR gel photograph showing amplification of 200 bp cyclin A promoter emcompassing CHR elements from ant-ezrin antibody immunoprecipitated chromatin. (FIG. 12B) BAECs co-transfected with cyclin A promoter-reporter construct and either wt or dnEzrin constructs and cultured in presence or absence of TNF for 24 h before were analyzed for luciferase activity. Bar graph represents average promoter activity from 3 similar experiments (*p<0.01). (FIG. 12C) Total RNA from empty vector wt or dnEzrin transfected cells under control or TNF-treatment conditions was evaluated for cyclin A mRNA expression by ribonuclease protection assays. Representative autoradiograph is shown.
3. […]

The subject of experiment [1] is CDE-CHR elements of the cyclin A promoter. Kind of experiment: EMSA of EC nuclear extracts with CDE-CHR / CHR oligonucleotides. The experiment is classed as cell-based, Bovine. A general note: A gel shift assay detects complexes by their altered migration in electrophoresis.
The next experiment concerns ezrin phosphorylation. Kind of experiment: Western blot for phospho-ezrin in EC lysates. The experiment is classed as cell-based, Bovine. The following applies: Y27632 20 μM, all experimental time points.
In a further experiment the test system is EC proliferation. Kind of experiment: Thymidine uptake assay, EC proliferation. In kind it is cell-based, Bovine. On the procedure:
Having documented TNF-induced nuclear translocation and the ability of ezrin to bind to cyclin A CHR elements, the functional consequences of TNF-mediated ezrin modulation in EC was determined. To evaluate the effect of ezrin over-expression in the presence of TNF on cell proliferation, EC were transiently transfected with either wtEzrin or dnEzrin expression vectors. Cells were treated or not with TNF and BrdU (50 μg/mL) was added to all cultures for 6 hours. […] Tritiated thymidine uptake assays were performed as an independent measure of cell proliferation in similarly transfected and treated cells and corroborated the findings of BrdU incorporation (FIG. 11C).
FIGS. 11A-E are explained in more detail as follows. Quiescent BAECs transiently transfected with empty vector, wild type and dominant negative ezrin were cultured in the absence (control) or presence of 20 ng/mL TNF for 24 hrs. Cells were labeled with BrdU (50 μg/mL) for last 6 hrs of culture. […] BrdU positive cells were counted in at least 6 different visual fields. […]
To provide further evidence that the improvement in EC function attained by inhibition of ROCK-2 was mediated by ezrin, we performed rescue experiments. EC transiently transfected with wtEzrin and treated with TNF were co-treated with increasing doses of Y27632 and cell proliferation was determined by thymidine incorporation.

For a further experiment, the system named is cyclin A CHR elements. The experiment in a line: South-western analysis and UV cross-linking of nuclear proteins with CDE-mCHR or mCDE-CHR probes. Conditions: cycloheximide 5 μg/mL along with TNF. In kind it is cell-based, Bovine. The source says:
Nuclear proteins from asynchronously growing BAEC with or without TNF were probed with ^32P-labeled CDE-mCHR or mCDE-CHR oligonucleotides.
To confirm that 84 kDa protein in TNF treated extracts identified in FIGS. 8A-B, does bind to CHR elements, we performed UV cross-linking experiments. EMSA reactions were assembled as before followed by UV cross-linking. The reactions were then boiled in SDS loading buffer and resolved on 12% SDS-PAGE. In reactions probed with CDE-mCHR the 35-kDa protein seen before was observed again (FIGS. 8C-D). In reactions probed with mCDE-CHR probe, the previously identified (FIGS. 8A-B) 39-kDa protein was found cross-linked to oligonucleotide. Similarly, the 84-kDa protein from TNF treated extract cross-linked with mCDE-CHR probe, further confirming the southwestern results.
FIGS. 8A-E are explained in more detail as follows. FIGS. 8A-B. Representative autoradiograph of south-western analysis. Nuclear proteins from asynchronously growing EC with or with out TNF treatment were size fractionated on a 12% SDS-PAGE gel, transferred to PVDF membrane and renatured. Membranes were then incubated with radio-labeled CDE-mCHR or mCDE-CHR oligonucleotide. Membranes were washed, air dried and autoradiographed. […]

Experiment [2] concerns CHR oligonucleotides (cyclin A promoter). Kind of experiment: EMSA of recombinant protein with CHR oligonucleotides. The following applies: recombinant protein 1 μg. In kind it is binding. From the text: Nuclear extracts from control and TNF-treated EC were mixed with biotin-labeled CHR oligonucleotides and the bound proteins were captured on avidin-agarose beads. Eluted proteins from beads were subjected to Western blot analysis for ezrin. […] Specificity of CHR-ezrin binding was further confirmed by EMSA assays using recombinant-ezrin protein (GST-ezrin). […] We next evaluated the effect of TNF-induced ezrin binding to cyclin A-CHR by dominant-negative ezrin over-expression. EC were transiently transfected with wild-type (wtEzrin) and dominant negative (dnEzrin) ezrin expression vector. […] That TNF-induced modulation of ezrin up-regulates CHR-binding activity was further evident from ezrin immunodepletion experiments. Endogenous ezrin was immunodepleted from control and TNF-treated nuclear extracts by treating extracts with anti-ezrin antibodies over 5 rounds. Immunodepleted extracts were then analyzed by EMSA for CHR-binding activity.
FIGS. 9A-D are explained in more detail as follows. […] Eluted proteins from beads were analyzed for ezrin protein in western blots. […] (FIG. 9C) Nuclear extracts from control and TNF-treated BAECs, transfected with wild type or dominant negative ezrin, were evaluated CHR binding activity in EMSAs. […] Depleted extracts alone or depleted extracts from TNF treated cells reconstituted with GST-ezrin were then analyzed for CHR binding activity. […]

RhoA kinase (ROCK-2), sequence (Q28021 whole entry): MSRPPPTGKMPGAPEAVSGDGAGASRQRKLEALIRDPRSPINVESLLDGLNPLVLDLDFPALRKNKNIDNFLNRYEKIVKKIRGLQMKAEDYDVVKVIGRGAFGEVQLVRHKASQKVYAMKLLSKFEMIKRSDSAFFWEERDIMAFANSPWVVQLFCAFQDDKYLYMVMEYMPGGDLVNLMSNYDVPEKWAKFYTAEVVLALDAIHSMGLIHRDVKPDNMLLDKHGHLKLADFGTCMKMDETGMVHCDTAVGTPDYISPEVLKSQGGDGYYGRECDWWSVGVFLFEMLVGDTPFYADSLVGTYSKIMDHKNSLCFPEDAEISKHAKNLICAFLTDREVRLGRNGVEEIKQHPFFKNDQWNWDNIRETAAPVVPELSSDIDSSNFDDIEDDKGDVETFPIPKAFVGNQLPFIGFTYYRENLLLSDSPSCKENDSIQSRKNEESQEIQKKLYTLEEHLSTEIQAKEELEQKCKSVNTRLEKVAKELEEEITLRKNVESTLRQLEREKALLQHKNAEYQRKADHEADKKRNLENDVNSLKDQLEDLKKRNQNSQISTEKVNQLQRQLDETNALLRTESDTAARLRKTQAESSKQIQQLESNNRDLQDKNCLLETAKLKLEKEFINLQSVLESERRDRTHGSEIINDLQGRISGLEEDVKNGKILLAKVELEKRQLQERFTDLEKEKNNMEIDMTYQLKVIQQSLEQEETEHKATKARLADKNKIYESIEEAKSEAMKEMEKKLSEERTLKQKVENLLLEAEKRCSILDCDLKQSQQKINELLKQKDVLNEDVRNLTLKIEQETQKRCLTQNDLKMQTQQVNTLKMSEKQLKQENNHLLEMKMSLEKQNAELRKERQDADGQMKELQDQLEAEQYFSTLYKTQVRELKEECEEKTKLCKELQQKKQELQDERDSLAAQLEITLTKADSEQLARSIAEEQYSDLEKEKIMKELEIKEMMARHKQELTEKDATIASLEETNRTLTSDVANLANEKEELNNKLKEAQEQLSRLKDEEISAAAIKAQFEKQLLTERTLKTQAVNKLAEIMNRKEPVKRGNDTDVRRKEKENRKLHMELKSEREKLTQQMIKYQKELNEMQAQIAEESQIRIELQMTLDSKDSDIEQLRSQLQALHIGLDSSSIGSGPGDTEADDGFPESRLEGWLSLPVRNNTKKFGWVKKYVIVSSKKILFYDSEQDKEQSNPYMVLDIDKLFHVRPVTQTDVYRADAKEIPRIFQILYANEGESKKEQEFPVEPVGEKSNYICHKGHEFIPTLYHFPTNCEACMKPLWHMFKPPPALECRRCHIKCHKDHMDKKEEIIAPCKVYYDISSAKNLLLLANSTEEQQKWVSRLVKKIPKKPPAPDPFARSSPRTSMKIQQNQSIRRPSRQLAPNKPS

Consider `C[C@@H](N)[C@H]1CC[C@H](C(=O)Nc2ccncc2)CC1` [Y27632], for which the “ROCK-2 induction by TNF” value on RhoA kinase (ROCK-2) is reported as “completely abolished”. Besides, in the experiment with cyclin A mRNA, the “TNF-mediated inhibition of cyclin A mRNA expression” value is “reversed”. For the same molecule, in experiment [1] (nuclear extracts from EC co-treated with TNF and Y27632), the “TNF-induced CHR binding activity” value is “significantly reduced”. Further, the TNF-induced ezrin phosphorylation result in the experiment with ezrin phosphorylation is recorded as “completely inhibited”. Further, the “ezrin/TNF mediated inhibition of EC proliferation” value in the experiment with EC proliferation (EC transfected with wtEzrin, treated with TNF, increasing doses of Y27632) is on record as “dose dependently reversed”. Further, in the experiment on EC proliferation (treatment of EC with Y27632 in the presence of TNF), the “inhibitory effect of TNF on EC proliferation” value was “partially abrogated”.

Turning to `C[C@@H]1C[C@@H]([C@H](O)CC2CC(=O)NC(=O)C2)C(=O)[C@@H](C)C1` [cycloheximide], the “induction of 84-kDa protein by TNF” value in the experiment on cyclin A CHR elements is on record as “failed to induce the protein”.

As to “Recombinant ezrin: Recombinant human ezrin protein (GST-ezrin)”, the “CHR-binding activity of ezrin-immunodepleted TNF-extract” value in experiment [1] (recombinant ezrin added back to the depleted TNF-extract) is listed as “significantly increased”. Also, the “complex formation with CHR oligonucleotides” value in experiment [2] is recorded as “formed complex”.

B1: recombinant-DP1 protein: control recombinant-DP1 protein used in EMSA (protein, UniProt Q14186 1-410, looked up)
Transcription factor Dp-1: MAKDAGLIEANGELKVFIDQNLSPGKGVVSLVAVHPSTVNPLGKQLLPKTFGQSNVNIAQQVVIGTPQRPAASNTLVVGSPHTPSTHFASQNQPSDSSPWSAGKRNRKGEKNGKGLRHFSMKVCEKVQRKGTTSYNEVADELVAEFSAADNHILPNESAYDQKNIRRRVYDALNVLMAMNIISKEKKEIKWIGLPTNSAQECQNLEVERQRRLERIKQKQSQLQELILQQIAFKNLVQRNRHAEQQASRPPPPNSVIHLPFIIVNTSKKTVIDCSISNDKFEYLFNFDNTFEIHDDIEVLKRMGMACGLESGSCSAEDLKMARSLVPKALEPYVTEMAQGTVGGVFITTAGSTSNGTRFSASDLTNGADGMLATSSNGSQYSGSRVETPVSYVGEDDEEDDDFNENDEDD
Consider B1, for which the “complex formation with CHR oligonucleotides” value in experiment [2] is “did not form the complex”.
